We go through 14 compounds from ChEMBL document CHEMBL3853342, “Design, synthesis and biological evaluation of novel benzo-α-pyrone containing piperazine derivatives as potential BRAFV600E inhibitors” (Bioorg Med Chem Lett, 2016).

By IC50 is commonly meant the concentration that inhibits the measured activity by half. For orientation: CC50 means the concentration that lowers cell viability or growth by half.

Some results are limits rather than exact numbers.

Series [1] addresses Serine/threonine-protein kinase B-raf (Homo sapiens, UniProt P15056, V600E). Briefly: Inhibition of human recombinant GST-tagged BRAF catalytic domain (416 to 766 residues) V600E mutant expressed in baculovirus expression system preincubated for 1 hr followed by human full length recombinant N-terminal His-tagged MEK1 substrate addition measured after 25 mins by gel electrophoresis method.

Series [2] is described as follows: Antiproliferative activity against human A375 cells assessed as cell growth inhibition after 24 hrs by MTT assay. Type of series: functional, cell-based. Conditions: A-375, 24 h. (In general: Tetrazolium dyes change colour on reduction, which living cells bring about.)
Series [3] in a line: Antiproliferative activity against human WM266.4 cells harboring BRAF V600E mutant assessed as cell growth inhibition after 24 hrs by MTT assay. In kind it is functional, cell-based. Conditions: WM 266-4, 24 h.
The nature of series [4]: Antiproliferative activity against human WM1361 cells assessed as cell growth inhibition after 24 hrs by MTT assay. Type of series: functional, cell-based. The conditions noted are these: WM1361, 24 h.
Series [5] in a line: Cytotoxicity against human 293T cells assessed as cell growth inhibition after 24 hrs by MTT assay. Type of series: toxicity, cell-based, HEK-293T.

Chain of Serine/threonine-protein kinase B-raf (P15056 2-766 V600E limits assumed): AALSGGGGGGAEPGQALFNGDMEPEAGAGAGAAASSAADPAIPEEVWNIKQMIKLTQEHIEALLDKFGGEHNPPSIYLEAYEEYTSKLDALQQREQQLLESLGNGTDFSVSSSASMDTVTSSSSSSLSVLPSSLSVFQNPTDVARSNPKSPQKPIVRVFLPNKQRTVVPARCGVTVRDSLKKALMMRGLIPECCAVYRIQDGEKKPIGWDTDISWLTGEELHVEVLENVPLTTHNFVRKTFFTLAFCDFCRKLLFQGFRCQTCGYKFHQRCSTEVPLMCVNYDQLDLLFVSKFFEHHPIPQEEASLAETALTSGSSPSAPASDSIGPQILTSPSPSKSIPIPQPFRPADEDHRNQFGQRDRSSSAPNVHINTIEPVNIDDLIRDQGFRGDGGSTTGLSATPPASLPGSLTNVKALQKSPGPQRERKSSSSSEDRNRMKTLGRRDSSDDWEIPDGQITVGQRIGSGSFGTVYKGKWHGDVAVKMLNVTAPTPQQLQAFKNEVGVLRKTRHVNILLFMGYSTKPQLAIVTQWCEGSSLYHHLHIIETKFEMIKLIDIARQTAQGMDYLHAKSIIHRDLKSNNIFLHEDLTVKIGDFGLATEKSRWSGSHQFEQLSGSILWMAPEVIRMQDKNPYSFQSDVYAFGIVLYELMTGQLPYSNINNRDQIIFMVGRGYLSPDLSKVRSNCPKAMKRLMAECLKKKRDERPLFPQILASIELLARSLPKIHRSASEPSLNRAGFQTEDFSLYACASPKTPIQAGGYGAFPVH

`O=c1oc2ccccc2c(N2CCN(c3ccccc3)CC2)c1CO`: the IC50 in series [1] is 8.93 µM; in series [2], 17.2 µM; in series [3] it was 16.6 µM; in series [4], greater than 50 µM. Also, the CC50 at 24 h in series [5] is greater than 50 µM.
Consider `CCN1CCN(c2c(CO)c(=O)oc3ccccc23)CC1`, for which the half-inhibitory concentration (IC50) in series [1] was greater than 50 µM; in series [2] it was greater than 50 µM; in series [3] it was greater than 50 µM; in series [4] it was greater than 100 µM. Also, the CC50 at 24 h in series [5] was greater than 50 µM.
Consider `O=c1oc2ccccc2c(N2CCN(c3cccc(Cl)c3Cl)CC2)c1CO`, for which the half-inhibitory concentration (IC50) was 3.27 µM in series [1], 8.45 µM in series [2], 6.56 µM in series [3] and 45.9 µM in series [4]. For the same compound, the CC50 at 24 h in series [5] was greater than 50 µM.
For `CCCS(=O)(=O)Nc1ccc(F)c(C(=O)c2c[nH]c3ncc(-c4ccc(Cl)cc4)cc23)c1F` [VEMURAFENIB], the IC50 was 0.21 µM in series [2], 0.07 µM in series [3] and 1.86 µM in series [4]. The cytotoxic concentration (CC50) at 24 h in series [5] was greater than 50 µM.
As to `O=c1oc2ccccc2c(N2CCN(c3cccc(Cl)c3)CC2)c1CO`, the half-maximal inhibitory concentration (IC50) in series [1] was 33.5 µM; in series [2], 40.5 µM; in series [3], 46.3 µM; in series [4], greater than 50 µM. For the same compound, the half-maximal cytotoxic concentration (CC50) at 24 h in series [5] is greater than 50 µM.
Take `O=c1oc2ccccc2c(N2CCN(c3ccccc3F)CC2)c1CO`: the IC50 in series [1] is 22 µM; in series [2], 32.1 µM; in series [3] it was 37.6 µM; in series [4] it was greater than 50 µM. Further, the CC50 at 24 h in series [5] is greater than 50 µM.
On to `O=c1oc2ccccc2c(N2CCN(c3ccc(Cl)c(Cl)c3)CC2)c1CO`, for which the half-inhibitory concentration (IC50) in series [1] was 2.56 µM; in series [2], 7.66 µM; in series [3], 6.04 µM; in series [4] it was 42.7 µM. Besides, in series [5], the CC50 at 24 h is greater than 50 µM.
For `O=c1oc2ccccc2c(N2CCN(C(c3ccc(F)cc3)c3ccc(F)cc3)CC2)c1CO`, in that order: 0.68 µM, 3.16 µM, 2.57 µM, 29.4 µM and greater than 50 µM.
For the compound `O=c1oc2ccccc2c(N2CCN(C(c3ccccc3)c3ccc(Cl)cc3)CC2)c1CO` (centres undefined), the IC50 in series [1] worked out at 0.92 µM; in series [2], 3.89 µM; in series [3], 2.74 µM; in series [4], 30.2 µM. Besides, the 50% cytotoxic concentration (CC50) at 24 h in series [5] was greater than 50 µM.
For `O=c1oc2ccccc2c(N2CCN(c3ccc(F)cc3)CC2)c1CO` the same measures were 17.8 µM, 24.7 µM, 23.4 µM, greater than 50 µM and greater than 50 µM.
For `COc1ccc(N2CCN(c3c(CO)c(=O)oc4ccccc34)CC2)cc1`, in that order: 1.84 µM, 7.23 µM, 5.61 µM, 40.4 µM and greater than 50 µM.
With `COc1cccc(N2CCN(c3c(CO)c(=O)oc4ccccc34)CC2)c1`, the IC50 was 1.76 µM in series [1], 6.51 µM in series [2], 5.33 µM in series [3] and 38.1 µM in series [4]. For the same compound, the half-maximal cytotoxic concentration (CC50) at 24 h in series [5] was greater than 50 µM.
For `O=c1oc2ccccc2c(N2CCN(c3cccc(C(F)(F)F)c3)CC2)c1CO` the same measures were 24.2 µM, 31.9 µM, 30 µM, greater than 50 µM and greater than 50 µM.
For `COc1ccccc1N1CCN(c2c(CO)c(=O)oc3ccccc23)CC1`, in that order: 10.1 µM, 20 µM, 18.3 µM, greater than 50 µM and greater than 50 µM.
